What was measured:
[1] = test system: MOLM-14 D835Y (endogenous FLT3 ITD and transfected FLT3 D835Y); test: MOLM-14 D835Y cell proliferation assay (CellTiter-Glo); format: cell-based; details: Homo sapiens, MOLM-14, 72 h; 3 d growth, GMean
Procedure, shortened: (§1)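 MOLM-14 derivatives carrying D835Y or F691L, selected under escalating AC220, were seeded at 1×10^4 cells/well and exposed to an 8-point 1:3 compound series (1 to 0.00046 μM, 0.2% DMSO final) for three days at 37° C., 5% CO2. CellTiter-Glo luminescence (ATP content) versus concentration gave IC50.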

[2] = target: T1, BA/F3-FLT3-ITD + D835Y (Homo sapiens, UniProt P36888, D835Y, cells depend on it, form not given); test: Engineered BA/F3 cell growth assay, FLT3 ITD/D835Y; format: cell-based, murine; details: 3 d growth
T1 sequence (P36888 with tags, fused parts or gaps INS600HVDFREYEYD/D835Y): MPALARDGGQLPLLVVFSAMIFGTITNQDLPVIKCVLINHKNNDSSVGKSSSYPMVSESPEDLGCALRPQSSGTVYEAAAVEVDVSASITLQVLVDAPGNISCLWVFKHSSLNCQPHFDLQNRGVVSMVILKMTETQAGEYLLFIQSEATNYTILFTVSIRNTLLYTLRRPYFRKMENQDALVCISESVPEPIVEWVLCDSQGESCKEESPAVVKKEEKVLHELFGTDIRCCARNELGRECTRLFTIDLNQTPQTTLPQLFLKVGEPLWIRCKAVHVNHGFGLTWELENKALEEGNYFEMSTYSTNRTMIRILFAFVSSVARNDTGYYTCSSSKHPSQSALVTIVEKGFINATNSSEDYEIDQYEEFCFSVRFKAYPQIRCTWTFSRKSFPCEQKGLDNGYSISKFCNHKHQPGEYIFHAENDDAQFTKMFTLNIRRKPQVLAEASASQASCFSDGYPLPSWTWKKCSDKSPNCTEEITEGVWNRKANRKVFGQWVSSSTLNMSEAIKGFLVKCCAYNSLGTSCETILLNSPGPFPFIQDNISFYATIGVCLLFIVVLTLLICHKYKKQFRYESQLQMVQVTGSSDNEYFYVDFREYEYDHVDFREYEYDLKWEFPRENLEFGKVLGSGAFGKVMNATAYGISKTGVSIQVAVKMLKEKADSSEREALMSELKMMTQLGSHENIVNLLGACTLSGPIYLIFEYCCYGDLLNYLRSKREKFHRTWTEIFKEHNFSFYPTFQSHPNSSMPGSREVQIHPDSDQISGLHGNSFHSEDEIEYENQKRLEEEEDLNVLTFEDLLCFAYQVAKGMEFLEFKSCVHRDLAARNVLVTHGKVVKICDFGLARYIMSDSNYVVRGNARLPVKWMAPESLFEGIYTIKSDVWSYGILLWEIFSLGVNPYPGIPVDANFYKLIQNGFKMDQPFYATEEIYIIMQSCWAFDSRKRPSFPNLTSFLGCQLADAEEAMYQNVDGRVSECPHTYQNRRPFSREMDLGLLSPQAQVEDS
Procedure, shortened: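 IC50 derived from CellTiter-Glo ATP luminescence after 3 days at 37 °C, 5% CO2, over eight 1:3 dilutions from 1 μM (0.2% DMSO final). Cells: IL-3-independent murine Ba/F3 expressing full-length FLT3 ITD/D835Y, 1×10^4 per well.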

[3] = test system: MOLM-14 F691L (endogenous FLT3 ITD and transfected FLT3 F691L); test: MOLM-14 F691L cell proliferation assay (CellTiter-Glo); format: cell-based; details: Homo sapiens, MOLM-14, 72 h; 3 d growth, GMean
Procedure, shortened: as §1

CCn1cc(Nc2ncc(-c3ccc(CC(=O)Nc4ccc(C(F)(F)F)nc4)c(F)c3)cn2)cn1 [Compound P-0257, 2-[4-[2-[(1-ethylpyrazol-4-yl)amino]pyrimidin-5-yl]-2-fluoro-phenyl]-N-[6-(trifluoromethyl)-3-pyridyl]acetamide]
0.0001 to 10 µM: IC50 [1] | GI50 [2] | IC50 [3]

Cn1cnc(Nc2ncc(-c3ccc(CC(=O)Nc4cc(C(F)(F)F)ccn4)cc3)cn2)c1 [Compound P-0022, 2-[4-[2-[(1-methylimidazol-4-yl)amino]pyrimidin-5-yl]phenyl]-N-[4-(trifluoromethyl)-2-pyridyl]acetamide]
0.0001 to 10 µM: IC50 [1] | GI50 [2] | IC50 [3]

COCCn1cc(Nc2ncc(-c3ccc(CC(=O)Nc4ccc(C(F)(F)F)cn4)cc3)cn2)cn1 [Compound P-0274, 2-[4-[2-[[1-(2-methoxyethyl)pyrazol-4-yl]amino]pyrimidin-5-yl]phenyl]-N-[5-(trifluoromethyl)-2-pyridyl]acetamide]
0.0001 to 10 µM: IC50 [1] | GI50 [2] | IC50 [3]

CCn1cc(Nc2ncc(-c3ccc(CC(=O)Nc4cnc(OC)c(C(F)(F)F)c4)cc3)cn2)cn1 [Compound P-0253, 2-[4-[2-[(1-ethylpyrazol-4-yl)amino]pyrimidin-5-yl]phenyl]-N-[6-methoxy-5-(trifluoromethyl)-3-pyridyl]acetamide]
0.0001 to 10 µM: IC50 [1] | GI50 [2] | IC50 [3]

CCn1cc(Nc2ncc(-c3ccc(CC(=O)Nc4cncc(C(F)(F)F)c4)c(F)c3)cn2)cn1 [Compound P-0258, 2-[4-[2-[(1-ethylpyrazol-4-yl)amino]pyrimidin-5-yl]-2-fluoro-phenyl]-N-[5-(trifluoromethyl)-3-pyridyl]acetamide]
0.0001 to 10 µM: IC50 [1] | GI50 [2] | IC50 [3]

COc1ncc(NC(=O)Cc2ccc(-c3cnc(Nc4cnn(C(F)F)c4)nc3)cc2)cc1C(F)(F)F [Compound P-0211, 2-[4-[2-[[1-(difluoromethyl)pyrazol-4-yl]amino]pyrimidin-5-yl]phenyl]-N-[6-methoxy-5-(trifluoromethyl)-3-pyridyl]acetamide]
0.0001 to 10 µM: IC50 [1] | GI50 [2] | IC50 [3]

CCn1cc(Nc2ncc(-c3cc(F)c(CC(=O)Nc4cnc(C)c(C(F)(F)F)c4)cc3F)cn2)cn1 [Compound P-0249, 2-[4-[2-[(1-ethylpyrazol-4-yl)amino]pyrimidin-5-yl]-2,5-difluoro-phenyl]-N-[6-methyl-5-(trifluoromethyl)-3-pyridyl]acetamide]
0.0001 to 10 µM: IC50 [1] | GI50 [2] | IC50 [3]

COCCn1cc(Nc2ncc(-c3ccc(CC(=O)Nc4cnc(Cl)c(C(F)(F)F)c4)c(F)c3)cn2)cn1 [Compound P-0266, N-[6-chloro-5-(trifluoromethyl)-3-pyridyl]-2-[2-fluoro-4-[2-[[1-(2-methoxyethyl)pyrazol-4-yl]amino]pyrimidin-5-yl]phenyl]acetamide]
0.0001 to 10 µM: IC50 [1] | GI50 [2] | IC50 [3]

Cc1ncc(NC(=O)Cc2ccc(-c3cnc(Nc4cnn(C5CC5)c4)nc3)cc2F)cc1C(F)(F)F [Compound P-0239, 2-[4-[2-[(1-cyclopropylpyrazol-4-yl)amino]pyrimidin-5-yl]-2-fluoro-phenyl]-N-[6-methyl-5-(trifluoromethyl)-3-pyridyl]acetamide]
0.0001 to 10 µM: IC50 [1] | GI50 [2] | IC50 [3]

O=C(Cc1ccc(-c2cnc(Nc3cnn(C(F)F)c3)nc2)cc1)Nc1cncc(C(F)(F)F)c1 [Compound P-0209, 2-[4-[2-[[1-(difluoromethyl)pyrazol-4-yl]amino]pyrimidin-5-yl]phenyl]-N-[5-(trifluoromethyl)-3-pyridyl]acetamide]
0.0001 to 10 µM: IC50 [1] | GI50 [2] | IC50 [3]

Cn1cc(Nc2ncc(-c3cc(F)c(CC(=O)Nc4cc(C(F)(F)F)ccn4)cc3F)cn2)cn1 [Compound P-0019, 2-[2,5-difluoro-4-[2-[(1-methylpyrazol-4-yl)amino]pyrimidin-5-yl]phenyl]-N-[4-(trifluoromethyl)-2-pyridyl]acetamide]
0.0001 to 10 µM: IC50 [1] | GI50 [2] | IC50 [3]

O=C(Cc1ccc(-c2cnc(Nc3cnn(C4CC4)c3)nc2)cc1F)Nc1cnc(Cl)c(C(F)(F)F)c1 [Compound P-0240, N-[6-chloro-5-(trifluoromethyl)-3-pyridyl]-2-[4-[2-[(1-cyclopropylpyrazol-4-yl)amino]pyrimidin-5-yl]-2-fluoro-phenyl]acetamide]
0.0001 to 10 µM: IC50 [1] | GI50 [2] | IC50 [3]

Cn1cc(Nc2ncc(-c3ccc(CC(=O)Nc4cc(C(F)(F)F)ccn4)cc3F)cn2)cn1 [Compound P-0017, 2-[3-fluoro-4-[2-[(1-methylpyrazol-4-yl)amino]pyrimidin-5-yl]phenyl]-N-[4-(trifluoromethyl)-2-pyridyl]acetamide]
0.0001 to 10 µM: IC50 [1] | GI50 [2] | IC50 [3]

CC(C)(O)C#Cc1cc2cc(-c3ccc(CC(=O)Nc4cncc(C(F)(F)F)c4)cc3)cnc2[nH]1 [Compound P-0204, 2-[4-[2-(3-hydroxy-3-methyl-but-1-ynyl)-1H-pyrrolo[2,3-b]pyridin-5-yl]phenyl]-N-[5-(trifluoromethyl)-3-pyridyl]acetamide]
0.0001 to 10 µM: IC50 [1] | GI50 [2] | IC50 [3]

Cn1cc(Nc2ncc(-c3cc(F)c(CC(=O)Nc4cncc(C(F)(F)F)c4)cc3F)cn2)cn1 [Compound P-0207, 2-[2,5-difluoro-4-[2-[(1-methylpyrazol-4-yl)amino]pyrimidin-5-yl]phenyl]-N-[5-(trifluoromethyl)-3-pyridyl]acetamide]
0.0001 to 10 µM: IC50 [1] | GI50 [2] | IC50 [3]

O=C(Cc1ccc(-c2cnc(Nc3cnn(C4CC4)c3)nc2)cc1F)Nc1ccc(C(F)(F)F)cn1 [Compound P-0243, 2-[4-[2-[(1-cyclopropylpyrazol-4-yl)amino]pyrimidin-5-yl]-2-fluoro-phenyl]-N-[5-(trifluoromethyl)-2-pyridyl]acetamide]
0.0001 to 10 µM: IC50 [1] | GI50 [2] | IC50 [3]

COc1ncc(NC(=O)Cc2ccc(-c3cnc4[nH]c(-c5ccc(C#N)nc5)cc4c3)cc2F)cc1C(F)(F)F [Compound P-0011, 2-[4-[2-(6-cyano-3-pyridyl)-1H-pyrrolo[2,3-b]pyridin-5-yl]-2-fluoro-phenyl]-N-[6-methoxy-5-(trifluoromethyl)-3-pyridyl]acetamide]
0.0001 to 10 µM: IC50 [1] | GI50 [2] | IC50 [3]

O=C(Cc1ccc(-c2cnc3[nH]c(-c4ccnc(N5CCOCC5)c4)cc3c2)c(F)c1)Nc1cncc(C(F)(F)F)c1 [Compound P-0201, 2-[3-fluoro-4-[2-(2-morpholino-4-pyridyl)-1H-pyrrolo[2,3-b]pyridin-5-yl]phenyl]-N-[5-(trifluoromethyl)-3-pyridyl]acetamide]
0.0001 to 10 µM: IC50 [1] | GI50 [2] | IC50 [3]

COCCn1cc(Nc2ncc(-c3ccc(CC(=O)Nc4ccc(C(F)(F)F)nc4)cc3)cn2)cn1 [Compound P-0273, 2-[4-[2-[[1-(2-methoxyethyl)pyrazol-4-yl]amino]pyrimidin-5-yl]phenyl]-N-[6-(trifluoromethyl)-3-pyridyl]acetamide]
0.0001 to 10 µM: IC50 [1] | GI50 [2] | IC50 [3]

COCCn1cc(Nc2ncc(-c3ccc(CC(=O)Nc4ccc(C(F)(F)F)cn4)c(F)c3)cn2)cn1 [Compound P-0269, 2-[2-fluoro-4-[2-[[1-(2-methoxyethyl)pyrazol-4-yl]amino]pyrimidin-5-yl]phenyl]-N-[5-(trifluoromethyl)-2-pyridyl]acetamide]
0.0001 to 10 µM: IC50 [1] | GI50 [2] | IC50 [3]

O=C(Cc1ccc(-c2cnc(Nc3cnn(C4CC4)c3)nc2)cc1)Nc1cnc(Cl)c(C(F)(F)F)c1 [Compound P-0233, N-[6-chloro-5-(trifluoromethyl)-3-pyridyl]-2-[4-[2-[(1-cyclopropylpyrazol-4-yl)amino]pyrimidin-5-yl]phenyl]acetamide]
0.0001 to 10 µM: IC50 [1] | GI50 [2] | IC50 [3]
